Measured values from PubChem BioAssay AID463206 (Broad Institute, 2010).
Activity calls are given as the source filed them.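 How the source made its calls: active means caspase luminescence falls with dose and the half-maximal concentration AC50 from the fitted curve is at or below a set limit; inconclusive means flat fit at 30 to 70% signal loss, or invalid fit; inactive means AC50 above the limit, or signal rises instead.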

tested on: INS-1E cytokine-induced caspase-3/7, Caspase-Glo luminescence, 48 h; test: inhibitors of cytokine-induced caspase-3/7 activity, dose response, orthogonal assay for beta-cell apoptosis protection project, INS-1E rat cells, luminescence (AID 463206)

Row | Compound | AC50
1 | Cc1ccc(NC(=O)C(C)Sc2nnc(C)n2C2CC2)cc1S(=O)(=O)N1CCOCC1 (configuration not stated) | > 26 µM (inactive)
2 | COc1ccc(C(CCNCc2ccc(OC(C)C)cc2)c2ccccc2OC)cc1 (configuration not stated) | > 26 µM (inactive)
3 | O=C(Nc1ccc(Cl)cc1)Nc1nnc(CSCc2ccc(Cl)cc2)s1 | > 26 µM (inactive)
4 | Cc1ccc(-n2cccc2C(=S)N=P(N(C)C)(N(C)C)N(C)C)cc1 | > 26 µM (inactive)
5 | COc1cccc(/C=N/Nc2nc3ccccc3n3cnnc23)c1O | > 26 µM (inactive)
6 | CCOC(=O)C1CCCN(S(=O)(=O)c2ccc(S(=O)(=O)N(CC)CC)cc2)C1 (configuration not stated) | > 26 µM (inactive)
7 | O=C(NCCOCCOCCNC(=O)c1cccnc1)c1cccnc1 | > 26 µM (inactive)
8 | COc1ccc([N+](=O)[O-])c(S(=O)(=O)c2ccc(Cl)cc2)n1 | > 26 µM (inactive)
9 | Cc1ccc(S(=O)(=O)Nc2ccccc2C(=O)Nc2nc(-c3ccc(F)cc3)cs2)cc1 | > 26 µM (inactive)
10 | CCCCCCCC[n+]1cccc2c3ccccc3ccc21 | > 26 µM (inactive)
11 | Cn1nc([N+](=O)[O-])nc1Sc1cccc2cccnc12 | > 26 µM (inactive)
12 | O=C(c1cc(COc2cccc3cnccc23)on1)N1CCCC(CCCO)C1 (configuration not stated) | > 26 µM (inactive)
13 | c1ccc(-c2nnc3sc(-c4csc5c4CCCC5)nn23)cc1 | > 26 µM (inactive)
14 | CCCc1cc(=O)n2[nH]cc(-c3ccc(Cl)cc3)c2n1 | > 26 µM (inactive)
15 | CCN(c1ccccc1)S(=O)(=O)c1ccc(NC(=O)c2nc(S(C)(=O)=O)ncc2Cl)cc1 | > 26 µM (inactive)
16 | Cc1ccc(C(=O)Nc2nc(-c3ccccn3)cs2)cc1S(=O)(=O)N1CCOCC1 | > 26 µM (inactive)
17 | CN(C)C1=NC[C@H](Cc2ccccc2)N1CCCC1CCCCC1 | > 26 µM (inactive)
18 | O=C(N/N=C/c1ccccc1)c1c(O)c2ccccc2[nH]c1=O | > 26 µM (inactive)
19 | C=C(C(=O)c1ccccc1)C(C(=C)C(=O)c1ccccc1)c1ccc(OC)cc1 | > 26 µM (inactive)
20 | COc1ccc(C2CC(c3cccc(C)c3)n3nc(N)nc3N2)cc1 (configuration not stated) | > 26 µM (inactive)
21 | Cc1sc2ncnc(NC3CCN(Cc4ccccc4)CC3)c2c1C | > 26 µM (inactive)
22 | COc1ccc(C(=O)CSc2n[nH]c(=O)n2Cc2ccco2)cc1 | > 26 µM (inactive)
23 | COc1cc(CC(=O)Nc2nc(-c3ccc(F)c(F)c3)cs2)cc(OC)c1OC | > 26 µM (inactive)
24 | S=C(Nc1ccc(Cl)cc1)Nc1cccc2cnccc12 | > 26 µM (inactive)
25 | C/C(=N\NC(=O)c1cc2ccccc2cc1O)c1ccccn1 | > 26 µM (inactive)

Row | Compound | AC50
26 | N=c1c2c(n(Cc3ccc(Cl)c(Cl)c3)c3c1CCC3)CCCC2 | > 26 µM (inactive)
27 | O=C(N/N=C/c1cc([N+](=O)[O-])ccc1O)c1cc(-c2ccccc2)nc2ccccc12 | > 26 µM (inactive)
28 | COc1ccc(-c2c([C@H]3[C@H]4C=CC[C@@H](C)[C@@H]4C(=O)N3Cc3ccccc3)ccc3ccccc23)cc1 | > 26 µM (inactive)
29 | CCn1c(-c2ccc(C)cc2)nn(CC(=O)NCCc2ccccc2)c1=S | > 26 µM (inactive)
30 | Cc1ccc(/C=N/NC(=O)c2c(-c3ccccc3)noc2C)c(O)c1 | > 26 µM (inactive)
31 | O=C(NC(Nc1nc2ccc([N+](=O)[O-])cc2s1)(C(F)(F)F)C(F)(F)F)c1ccccc1 | > 26 µM (inactive)
32 | COc1ccccc1/C=N/OCc1cc(C(C)=O)ccc1OC | > 26 µM (inactive)
33 | CCOc1ccc(-n2c(-c3ccc(OC)cc3)c[n+]3c2CCCCC3)cc1 | > 26 µM (inactive)
34 | CC(C)(C)OC(=O)N1CCC(CNC(=O)c2cccs2)CC1 | > 26 µM (inactive)
35 | Cc1ccc(C)c(NS(=O)(=O)c2ccc(OCC(=O)NCc3cccnc3)cc2)c1 | > 26 µM (inactive)
36 | COCC1CCCCN1C(=O)c1cc(COc2ccc3ncccc3c2)on1 (configuration not stated) | > 26 µM (inactive)
37 | COC(=O)c1ccc(NC(=O)c2nc(S(=O)(=O)Cc3cccc(C)c3)ncc2Cl)cc1 | > 26 µM (inactive)
38 | COc1ccc(-c2cc(-c3nc4ccccn4c3NCc3ccccc3)ccc2OC)cc1 | > 26 µM (inactive)
39 | O=C(Oc1c(CN2CCOCC2)cc(Cl)c2cccnc12)c1cccs1 | > 26 µM (inactive)
40 | O=C(Nc1ccc(F)cc1F)N1CCCN(CCOc2ccccc2)CC1 | > 26 µM (inactive)
41 | Cc1ccccc1Oc1cc(NC(=O)CCCn2nc(C)c([N+](=O)[O-])c2C)cc([N+](=O)[O-])c1 | > 26 µM (inactive)
42 | COc1cc(SC#N)ccc1N=Cc1c(C)[nH]n(-c2ccc(C)cc2)c1=O | > 26 µM (inactive)
43 | CCOC(=O)c1sc(NC(=O)Nc2cccc(Cl)c2)cc1C | > 26 µM (inactive)
44 | O=C(NCc1cccnc1)/C(=C\c1ccc(-c2cccc(Cl)c2)o1)S(=O)(=O)c1ccccc1 | > 26 µM (inactive)
45 | Cn1cc(C(=O)N/N=C/c2c(O)ccc3ccccc23)ccc1=O | > 26 µM (inactive)
46 | O=C(Nc1ccc(Cl)cc1)/C(=C/c1cccc(O)c1)c1nc2ccccc2s1 | > 26 µM (inactive)
47 | [O-]c1ccccc1-[n+]1c(-c2ccccc2)cc(-c2ccccc2)cc1-c1ccccc1 | > 26 µM (inactive)
48 | Cc1cc(N/N=C/c2ccccc2[N+](=O)[O-])nc(-n2nc(C)cc2C)n1 | > 26 µM (inactive)
49 | Cn1nc(C(C)(C)C)cc1C(=O)NCc1ccc(N2CCCC2=O)cc1 | > 26 µM (inactive)
50 | O=S1(=O)C=C(Sc2nc3ccccc3s2)c2ccccc21 | > 26 µM (inactive)

Row | Compound | AC50
51 | Cc1nnc2ccc(Oc3ccc(-c4ccccc4)cc3)nn12 | > 26 µM (inactive)
52 | Cc1ccccc1C(=O)N1CCN(c2ccc(NC(=O)c3cccnc3)cc2)CC1 | > 26 µM (inactive)
53 | COc1ccc(CCNc2c3ccccc3nc3ccccc23)cc1OC | 4.3 µM
54 | Cc1oc(/N=C/c2ccccc2)c(C#N)c1C | > 26 µM (inactive)
55 | COc1ccc(C(=O)NC(=S)NNC(=O)c2cnccn2)cc1 | > 26 µM (inactive)
56 | CN1/C(=C\C(=S)NC(=O)c2ccc([N+](=O)[O-])cc2)C(C)(C)c2ccccc21 | > 26 µM (inactive)
57 | CCn1c(C)nc2cc(-c3nnc(-c4c(-c5ccccc5)noc4C)o3)ccc21 | > 26 µM (inactive)
58 | N#Cc1c(N2CCCCC2)nc(N2CCCCC2)c2c1CCN(Cc1ccccc1)C2 | > 26 µM (inactive)
59 | Cc1sc2ncnc(NCC(C)(C)N3CCOCC3)c2c1C | > 26 µM (inactive)
60 | Cc1ccc2nc(-c3ccccn3)c(Nc3ccccc3C)n2c1 | > 26 µM (inactive)
61 | CCOC(=O)N1CCN(S(=O)(=O)c2ccc(C(=O)NNc3nc4cc(C)cc(C)c4s3)cc2)CC1 | > 26 µM (inactive)
62 | COc1ccc(-c2nn(-c3ccccc3)cc2/C=N/Nc2ccc3ccccc3n2)cc1OC | > 26 µM (inactive)
63 | O=[N+]([O-])c1ccc(N2CCN(C(=S)NCc3ccc(Cl)cc3)CC2)cc1 | > 26 µM (inactive)
64 | COC(=O)C[C@]1(C(=O)OC)CN(C#N)N(c2ccc(Cl)cc2)C12c1ccccc1-c1ccccc12 | > 26 µM (inactive)
65 | CCOc1cccc(/C=N/NC(=O)c2cc(C3CC3)[nH]n2)c1O | > 26 µM (inactive)
66 | Nc1ccc(Nc2ccccc2)cc1 | 17.7 µM
67 | C=CCN(CC=C)Cc1c[nH]c2ccccc12 | 26.3 µM
68 | Cc1cc(C(C)(C)C)cc(C)c1Cn1c2[n+](c3ccc(C(F)(F)F)cc31)CCCCC2 | > 26 µM (inactive)
69 | CCc1nc(N2CCN(C(C)=O)CC2)c2c3c(sc2n1)CC(C(C)(C)C)CC3 (configuration not stated) | > 26 µM (inactive)
70 | O=C(NC1CCCC1)c1cc(COc2ccc3ncccc3c2)on1 | > 26 µM (inactive)
71 | Cc1nc2c(=O)n(C)c(=O)nc-2n(C)n1 | > 26 µM (inactive)
72 | O=C(CC1C(=O)NCCN1Cc1ccc(-c2ccccc2)cc1)NC1CCC1 (configuration not stated) | > 26 µM (inactive)
73 | COc1ccc(Nc2ccc3c(c2)=NC2(CCCCC2)[N+]=3[O-])cc1 | > 26 µM (inactive)
74 | NC1=NC[C@H](Cc2ccc(O)cc2)N1CCCCC1CCCCC1 | > 26 µM (inactive)
75 | Cc1nnc(N/N=C/c2ccccn2)[nH]c1=O | > 26 µM (inactive)

Row | Compound | AC50
76 | CC(C)C[C@H]1CN=C(Nc2ccccc2)N1CCc1ccc(F)cc1 | > 12 µM (inactive)
77 | CCCCCn1c(=O)c(C(=O)Nc2nc3ccccc3[nH]2)c(O)c2ccccc21 | > 26 µM (inactive)
78 | Cn1ncnc2c(=O)n(C)c(=O)nc1-2 | > 26 µM (inactive)
79 | COc1cc2ccccc2cc1C(=O)Nc1sc2c(c1C(N)=O)CCN(C(C)C)C2 | 9.32 µM
80 | Oc1[nH]c(N=C2N=c3ccccc3=N2)c2ccccc12 | > 26 µM (inactive)
81 | Nc1nonc1-n1nnc(C(=O)N/N=C/c2cc(Br)ccc2O)c1CNc1ccccc1 | > 26 µM (inactive)
82 | O=[N+]([O-])c1ccc(N2CCN(C(=S)Nc3ccc(F)cc3)CC2)cc1 | > 26 µM (inactive)
83 | Cc1ccc(NC(=O)Nc2cccc([N+](=O)[O-])c2)cc1F | > 26 µM (inactive)
84 | Cc1ccc(O)c(NC(=S)NC(=O)c2ccc(-c3ccc(Cl)cc3)o2)c1 | > 26 µM (inactive)
85 | Cc1ccc(-c2c[n+]3c(n2-c2ccccc2)CCC3)cc1 | > 26 µM (inactive)
86 | O=C(/C=C/c1ccccc1)NC(=S)NNC(=O)c1cnccn1 | > 26 µM (inactive)
87 | COc1cc(/C=N/NC(=O)c2cccnc2)ccc1OC(=O)c1cc(OC)c(OC)c(OC)c1 | > 26 µM (inactive)
88 | Cc1ccc(C2=CC(c3ccc(N(C)C)cc3)n3nnnc3N2)cc1 (configuration not stated) | > 26 µM (inactive)
89 | O=C(Nc1cccnc1)C1(F)C(F)(F)C(F)(F)C(F)(F)C(F)(F)C1(F)F | > 26 µM (inactive)
90 | O=c1nccc(N/N=C/c2ccccc2O)[nH]1 | > 26 µM (inactive)
91 | O=c1c2c(nc3c(-c4ccc(Cl)cc4)c[nH]n13)CCCC2 | > 26 µM (inactive)
92 | O=C(N/N=C/c1cc(Br)cc(Cl)c1O)c1ccc2c(c1)OCO2 | > 26 µM (inactive)
93 | CC(=O)N1CCc2cc(S(=O)(=O)NCCC3=CCCCC3)ccc21 | > 12 µM (inactive)
94 | Cc1nc(NCCc2ccc(S(N)(=O)=O)cc2)c2c(C)c(C)sc2n1 | > 26 µM (inactive)
95 | O=C(Nc1cc(Sc2ccccn2)cc([N+](=O)[O-])c1)c1cccc(F)c1 | > 26 µM (inactive)
96 | O=S(=O)(Nc1cc(Sc2cccc3cccnc23)c(O)c2ccccc12)c1ccc(F)cc1 | > 26 µM (inactive)
97 | Cc1c(C(=O)N/N=C/c2c(O)ccc3ccccc23)nnn1-c1nonc1N | > 26 µM (inactive)
